Test results from the NIST ThermoML archive (doi:10.1016/j.jct.2011.01.014).

Experiment: xn = mol fraction of the nth substance listed
Conditions: 101 kPa, Liquid; for speed of sound: sound velocity cell; for mass density: Vibrating tube method

CC(=O)[O-].[NH3+]CCO [2-hydroxyethylammonium acetate] + O
Conditions	mass density [kg/m3]	speed of sound [m/s]
305.65 K, x1 = 0.051	–	1689.8
305.65 K, x1 = 0.1019	–	1763.6
305.65 K, x1 = 0.1963	–	1817.3
305.65 K, x1 = 0.2894	–	1823.5
305.65 K, x1 = 0.3959	–	1811.5
305.65 K, x1 = 0.5016	–	1799.8
305.65 K, x1 = 0.5821	–	1797
305.65 K, x1 = 0.6837	–	1788.2
305.65 K, x1 = 0.7763	–	1786.6
305.65 K, x1 = 0.8761	–	1776.6
305.65 K, x1 = 0.9137	–	1778.1
305.65 K, x1 = 1	–	1773.4
308.15 K, x1 = 0.051	1047.04	1690.8
308.15 K, x1 = 0.1019	1076	1762.3
308.15 K, x1 = 0.1963	1106.1	1814
308.15 K, x1 = 0.2894	1120.43	1819.3
308.15 K, x1 = 0.3959	1129.69	1806.9
308.15 K, x1 = 0.5016	1134.77	1795
308.15 K, x1 = 0.5821	1137.3	1792.1
308.15 K, x1 = 0.6837	1139.14	1783.2
308.15 K, x1 = 0.7763	1140.95	1781.4
308.15 K, x1 = 0.8761	1142.23	1771.3
308.15 K, x1 = 0.9137	1142.59	1772.8
308.15 K, x1 = 1	1143.39	1767.9
310.65 K, x1 = 0.051	1045.86	1691.5
310.65 K, x1 = 0.1019	1074.78	1760.8
310.65 K, x1 = 0.1963	1104.76	1810.6
310.65 K, x1 = 0.2894	1119.06	1815.2
310.65 K, x1 = 0.3959	1128.3	1802.4
310.65 K, x1 = 0.5016	1133.38	1790.2
310.65 K, x1 = 0.5821	1135.91	1787.2
310.65 K, x1 = 0.6837	1137.76	1778.2
310.65 K, x1 = 0.7763	1139.58	1776.3
310.65 K, x1 = 0.8761	1140.87	1766
310.65 K, x1 = 0.9137	1141.2	1767.5
310.65 K, x1 = 1	1141.96	1762.5
313.15 K, x1 = 0.051	1044.65	1692
313.15 K, x1 = 0.1019	1073.54	1759.2
313.15 K, x1 = 0.1963	1103.42	1807.1
313.15 K, x1 = 0.2894	1117.69	1811.1
313.15 K, x1 = 0.3959	1126.9	1797.7
313.15 K, x1 = 0.5016	1131.98	1785.3
313.15 K, x1 = 0.5821	1134.53	1782.3
313.15 K, x1 = 0.6837	1136.37	1773.2
313.15 K, x1 = 0.7763	1138.21	1771.3
313.15 K, x1 = 0.8761	1139.5	1760.8
313.15 K, x1 = 0.9137	1139.84	1762.3
313.15 K, x1 = 1	1140.55	1757.2
315.15 K, x1 = 0.051	1043.45	–
315.15 K, x1 = 0.1019	1072.29	–
315.15 K, x1 = 0.1963	1102.07	–
315.15 K, x1 = 0.2894	1116.31	–
315.15 K, x1 = 0.3959	1125.5	–
315.15 K, x1 = 0.5016	1130.58	–
315.15 K, x1 = 0.5821	1133.13	–
315.15 K, x1 = 0.6837	1134.98	–
315.15 K, x1 = 0.7763	1136.83	–
315.15 K, x1 = 0.8761	1138.14	–
315.15 K, x1 = 0.9137	1138.48	–
315.15 K, x1 = 1	1139.18	–
315.65 K, x1 = 0.051	–	1692.3
315.65 K, x1 = 0.1019	–	1757.5
315.65 K, x1 = 0.1963	–	1803.5
315.65 K, x1 = 0.2894	–	1806.9
315.65 K, x1 = 0.3959	–	1793.1
315.65 K, x1 = 0.5016	–	1780.5
315.65 K, x1 = 0.5821	–	1777.4
315.65 K, x1 = 0.6837	–	1768.2
315.65 K, x1 = 0.7763	–	1766.2
315.65 K, x1 = 0.8761	–	1755.7
315.65 K, x1 = 0.9137	–	1757.1
315.65 K, x1 = 1	–	1751.9
318.15 K, x1 = 0.051	1042.25	1692.3
318.15 K, x1 = 0.1019	1071.02	1755.5
318.15 K, x1 = 0.1963	1100.71	1799.9
318.15 K, x1 = 0.2894	1114.92	1802.6
318.15 K, x1 = 0.3959	1124.1	1788.4
318.15 K, x1 = 0.5016	1129.18	1775.6
318.15 K, x1 = 0.5821	1131.74	1772.5
318.15 K, x1 = 0.6837	1133.59	1763.2
318.15 K, x1 = 0.7763	1135.45	1761.2
318.15 K, x1 = 0.8761	1136.76	1750.5
318.15 K, x1 = 0.9137	1137.11	1751.9
318.15 K, x1 = 1	1137.82	1746.5
320.65 K, x1 = 0.051	1041.08	1692.2
320.65 K, x1 = 0.1019	1069.74	1753.5
320.65 K, x1 = 0.1963	1099.34	1796.1
320.65 K, x1 = 0.2894	1113.53	1798.2
320.65 K, x1 = 0.3959	1122.69	1783.6
320.65 K, x1 = 0.5016	1127.77	1770.7
320.65 K, x1 = 0.5821	1130.35	1767.6
320.65 K, x1 = 0.6837	1132.19	1758.2
320.65 K, x1 = 0.7763	1134.06	1756.1
320.65 K, x1 = 0.8761	1135.38	1745.3
320.65 K, x1 = 0.9137	1135.73	1746.7
320.65 K, x1 = 1	1136.45	1741.3
323.15 K, x1 = 0.051	1040.15	1691.8
323.15 K, x1 = 0.1019	1068.47	1751.2
323.15 K, x1 = 0.1963	1097.97	1792.3
323.15 K, x1 = 0.2894	1112.14	1793.9
323.15 K, x1 = 0.3959	1121.29	1778.9
323.15 K, x1 = 0.5016	1126.36	1765.9
323.15 K, x1 = 0.5821	1128.95	1762.8
323.15 K, x1 = 0.6837	1130.79	1753.3
323.15 K, x1 = 0.7763	1132.67	1751
323.15 K, x1 = 0.8761	1134	1740.2
323.15 K, x1 = 0.9137	1134.36	1741.5
323.15 K, x1 = 1	1135.08	1736
